The supplement of paper PMC4858399

Columns and labels:
Conditions in all cases: exposure time 48 h
[1] = system: Caenorhabditis elegans N2; assay: AC50 for larval growth inhibition (Hill fit); higher = less potent
Procedure, shortened: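 Worms were synchronised C. elegans N2 L1 larvae, 50 per well of a 96-well plate, kept 48 h at 20°C in K-medium with killed OP50, 1% DMSO and 0.5–200 µM chemical. Size was taken as COPAS Biosort extinction, log-transformed and averaged per well, using only wells with at least 10 worms. AC50 was estimated by a constrained Hill fit with weighted genetic-algorithm regression; values outside the range are censored.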

[2] = system: Caenorhabditis elegans N2; assay: mean nematode size ln(EXT) after 48 h, plate-adjusted (DMSO control set to 6) (ln(EXT), control-adjusted); higher = larger nematodes / less growth inhibition
Procedure, shortened: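 Synchronised C. elegans N2 L1 larvae (50 per well, 4–6 wells per treatment) were grown for 48 h at 20°C in K-medium with killed OP50, 1% DMSO and 0.5–200 µM chemical. The Biosort measured each worm's extinction, and debris was removed by a growth model. Values were natural-logged and averaged per well. Mean size was then plate-adjusted by subtracting the vehicle control mean and adding 6.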

[3] = system: Caenorhabditis elegans N2; assay: lowest effective concentration for larval growth inhibition (size below effect threshold); higher = less potent
Procedure, shortened: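 Log-transformed well means of per-worm extinction, read as size on a Biosort, came from 50 C. elegans N2 L1 larvae per 96-well grown 48 h at 20°C in K-medium with killed bacteria, 1% DMSO and 0.5 to 200 µM chemical. The lowest effective concentration is the first dose at which the plate-adjusted mean size is below the threshold and stays below it at every higher dose. The threshold is 5.665.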

| Compound | AC50 for larval growth inhibition [1] [µM] | mean nematode size ln(EXT) (ln) ([2]; 0.5 µM) | mean nematode size ln(EXT) (ln) ([2]; 1 µM) | mean nematode size ln(EXT) (ln) ([2]; 5 µM) | mean nematode size ln(EXT) (ln) ([2]; 10 µM) | mean nematode size ln(EXT) (ln) ([2]; 50 µM) | mean nematode size ln(EXT) (ln) ([2]; 100 µM) | mean nematode size ln(EXT) (ln) ([2]; 200 µM) | lowest effective concentration [3] [µM] |
| --- | --- | --- | --- | --- | --- | --- | --- | --- | --- |
| CC(C)(C)CC(C)(C)c1ccc(O)c(-n2nc3ccccc3n2)c1 [Octrizole] | > 200 | 5.46 | 5.58 | 5.57 | 5.58 | 5.58 | 5.55 | 5.44 | ≤ 0.5 |
| O=C(Nc1ccccc1-c1ccc(Cl)cc1)c1cccnc1Cl [Boscalid] | 9.83 | 6.09 | 6 | 5.75 | 5.68 | 4.94 | 5.21 | 5.39 | 50 |
| CCNC(=O)NC(=O)/C(C#N)=N/OC [Cymoxanil] | > 200 | 6.18 | 6.05 | 6.07 | 6.11 | 5.79 | 5.58 | 4.81 | 100 |
| CC(C)(c1ccc(O)cc1)c1ccc(O)cc1 [Bisphenol A] | > 200 | 5.83 | 5.86 | 5.99 | 5.88 | 5.95 | 5.96 | 5.46 | 200 |
| Cn1c(=O)c2nc[nH]c2n(C)c1=O [Theophylline] | > 200 | 5.97 | 5.97 | 5.98 | 6.02 | 5.84 | 5.9 | 5.59 | 200 |
| CCc1nn(C)c(C(=O)NCc2ccc(C(C)(C)C)cc2)c1Cl [Tebufenpyrad] | 1.03 | 4.96 | 5.23 | 3.83 | 3.7 | 3.95 | 4.11 | 3.36 | ≤ 0.5 |
| C=CCc1ccc2c(c1)OCO2 [Safrole] | 188 | 6.12 | 6.08 | 5.92 | 6.02 | 5.96 | 6.05 | 5.62 | 200 |
| CCCN(CCOc1c(Cl)cc(Cl)cc1Cl)C(=O)n1ccnc1 [Prochloraz] | 153 | 6.11 | 6.19 | 6.19 | 6.29 | 5.98 | 5.98 | 3.41 | 200 |
| COP(=S)(OC)Oc1ccc(SC)c(C)c1 [Fenthion] | 34.4 | 5.69 | 5.64 | 5.43 | 5.36 | 5.09 | 5.11 | 4.92 | 1 |
| Cc1cc(NC(=O)C(=O)O)cc(C)c1Oc1ccc(O)c2c1CCC2 | > 200 | 5.86 | 5.81 | 5.88 | 5.83 | 5.84 | 5.76 | 5.58 | 200 |
| CN(C)NC(=O)CCC(=O)O [Daminozide] | > 200 | 6.43 | 6.07 | 6.34 | 6.17 | 6 | 6.01 | 5.44 | 200 |
| CCN(Cc1cccnc1)C(=O)c1cccc(Cl)c1[C@]1(C)C(=O)N(Cc2ccc(OC)cc2OC)c2ccc(Cl)cc21 | 3.78 | 5.85 | 5.78 | 5.8 | 5.4 | 5.54 | 5.37 | 5.39 | 10 |
| O=C(O)CCCCC(=O)O [Adipic acid] | > 200 | 5.82 | 5.73 | 5.75 | 5.76 | 5.76 | 5.74 | 5.5 | 200 |
| O=C(O)C(O)C(O)C(=O)O (centres undefined) [Tartaric acid] | > 200 | 5.84 | 5.89 | 5.79 | 5.79 | 5.9 | 5.82 | 5.17 | 200 |
| Nc1cc2c3c(c1)C(c1ccccc1)=N[C@@H](NC(=O)c1cccnc1)C(=O)N3CC2 | > 200 | 5.78 | 5.74 | 5.7 | 5.73 | 5.63 | 5.62 | 5.61 | 50 |
| COC(=O)C=C(C)OP(=O)(OC)OC [Mevinphos] | 156 | 6.16 | 6.21 | 6.22 | 6.29 | 4.99 | 5.74 | 3.88 | 200 |
| Cc1cc(N=Nc2ccccc2C)ccc1N [Fast Garnet GBC base] | 14.9 | 5.83 | 5.71 | 5.55 | 5.5 | 3.45 | 3.57 | 3.77 | 5 |
| C#CCC1=C(C)C(OC(=O)C2C(C=C(C)C)C2(C)C)CC1=O (centres undefined) [Prallethrin] | 188 | 5.85 | 6.08 | 6.07 | 6.04 | 5.94 | 6.04 | 4.41 | 200 |
| CN(C[C@@H](CC[N+]12CCC(C3CCCCC3)(CC1)CC2)c1ccc(Cl)c(Cl)c1)C(=O)c1cc(C(F)(F)F)cc(C(F)(F)F)c1 | 22.8 | 5.87 | 6.12 | 5.97 | 5.76 | 3.96 | 3.97 | 3.56 | 50 |
| COP(=O)(OC)OC(Br)C(Cl)(Cl)Br (centres undefined) [Naled] | 95.8 | 5.83 | 5.69 | 5.51 | 5.53 | 4.87 | 4.66 | 3.88 | 5 |
| CC(C)(C)c1cc(C(C)(C)C)c(O)c(C(C)(C)C)c1 [2,4,6-Tris(tert-butyl)phenol] | > 200 | 5.84 | 5.9 | 5.94 | 5.7 | 5.58 | 5.4 | 4.67 | 50 |
